{
  "source": "patent US20030022871A1",
  "about": "“Method for modulating tumor growth and metastasis of tumor cells” (priority 2002, published 2003)",
  "key": {"[1]": {"biological_target": "T1, E47 (Homo sapiens, UniProt P15923)", "T1 sequence (P15923 1-651 isoform P15923-2)": "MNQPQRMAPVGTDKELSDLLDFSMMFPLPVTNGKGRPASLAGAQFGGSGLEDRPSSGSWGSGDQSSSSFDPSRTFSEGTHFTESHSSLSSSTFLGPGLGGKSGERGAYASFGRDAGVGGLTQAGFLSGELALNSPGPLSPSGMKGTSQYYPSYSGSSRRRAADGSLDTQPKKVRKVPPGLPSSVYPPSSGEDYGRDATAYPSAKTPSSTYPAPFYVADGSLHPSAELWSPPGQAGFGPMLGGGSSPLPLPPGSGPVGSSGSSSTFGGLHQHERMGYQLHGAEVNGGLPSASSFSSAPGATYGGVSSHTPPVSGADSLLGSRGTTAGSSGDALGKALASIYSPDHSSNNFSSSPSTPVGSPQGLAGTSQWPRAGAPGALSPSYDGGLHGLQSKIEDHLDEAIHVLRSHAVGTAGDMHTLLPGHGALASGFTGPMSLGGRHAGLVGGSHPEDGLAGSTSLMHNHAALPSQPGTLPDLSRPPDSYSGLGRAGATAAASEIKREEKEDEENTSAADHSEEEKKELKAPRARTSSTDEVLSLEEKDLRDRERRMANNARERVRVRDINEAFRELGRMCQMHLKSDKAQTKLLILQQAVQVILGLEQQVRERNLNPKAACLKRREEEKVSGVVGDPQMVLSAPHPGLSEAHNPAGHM", "test": "Native polyacrylamide gel binding of tritiated tetracycline to protein", "conditions": "10-30-fold molar excess of tritiated tetracycline, PBS, room temperature 30 minutes, 8% native gel autoradiogram", "procedure": "(§1) Radiolabeled tetracycline (tritiated) was mixed with purified Id1 protein and other proteins separately to permit contact between the labeled tetracycline and the proteins. […] The complexes could then be visualized in an autoradiogram of the gel, e.g., exposure of the gel to x-ray film.\n(§2) In this experiment, a 10-30-fold molar excess of tritiated tetracycline was added to the indicated proteins separately in 10 Tl reaction tube containing one of the proteins and phosphate buffered saline at physiological pH. Proteins used in this experiment were:\n(§3) The mixtures were incubated at room temperature for 30 minutes. Bromophenol blue was added to each sample at 0.01% (v/v). The samples were then electrophoresed on an 8% native polyacrylamide gel.\n(§4) After electrophoresing the samples, the gel was dried and exposed to autoradiographic film for 12 hours to make an autoradiogram of the gel."}, "[2]": {"tested_on": "Id old, an old preparation of Id in which the protein's conformation is perturbed", "test": "Native polyacrylamide gel binding of tritiated tetracycline to protein", "conditions": "10-30-fold molar excess of tritiated tetracycline, PBS, room temperature 30 minutes, 8% native gel autoradiogram", "procedure": "as §1, §2, §3, §4"}, "[3]": {"biological_target": "T2, E12 (Homo sapiens, UniProt P15923)", "T2 construct": "expressed in transfected cells", "T2 sequence (P15923 1-654)": "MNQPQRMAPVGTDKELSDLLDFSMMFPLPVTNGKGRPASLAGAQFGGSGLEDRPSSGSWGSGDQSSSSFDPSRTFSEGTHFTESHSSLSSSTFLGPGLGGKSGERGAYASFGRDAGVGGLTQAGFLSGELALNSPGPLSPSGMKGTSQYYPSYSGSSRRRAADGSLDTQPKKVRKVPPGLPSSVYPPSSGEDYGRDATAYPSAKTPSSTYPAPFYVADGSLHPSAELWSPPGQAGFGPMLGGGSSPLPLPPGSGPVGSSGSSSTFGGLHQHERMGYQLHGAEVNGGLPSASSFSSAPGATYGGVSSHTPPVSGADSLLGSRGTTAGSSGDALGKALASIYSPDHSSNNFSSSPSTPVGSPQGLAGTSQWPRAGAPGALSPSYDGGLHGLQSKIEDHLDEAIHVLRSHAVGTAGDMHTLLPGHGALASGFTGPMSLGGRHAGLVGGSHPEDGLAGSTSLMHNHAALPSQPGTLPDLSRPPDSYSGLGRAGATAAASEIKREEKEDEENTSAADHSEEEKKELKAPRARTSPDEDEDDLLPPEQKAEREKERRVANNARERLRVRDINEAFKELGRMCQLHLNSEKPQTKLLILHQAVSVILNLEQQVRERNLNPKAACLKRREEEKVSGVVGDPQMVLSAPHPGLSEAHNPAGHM", "test": "Native polyacrylamide gel binding of tritiated tetracycline to protein", "conditions": "10-30-fold molar excess of tritiated tetracycline, PBS, room temperature 30 minutes, 8% native gel autoradiogram", "procedure": "as §1, §2, §3, §4"}, "[4]": {"biological_target": "T3, MyoD (Homo sapiens, UniProt P15172)", "T3 sequence (P15172 1-320)": "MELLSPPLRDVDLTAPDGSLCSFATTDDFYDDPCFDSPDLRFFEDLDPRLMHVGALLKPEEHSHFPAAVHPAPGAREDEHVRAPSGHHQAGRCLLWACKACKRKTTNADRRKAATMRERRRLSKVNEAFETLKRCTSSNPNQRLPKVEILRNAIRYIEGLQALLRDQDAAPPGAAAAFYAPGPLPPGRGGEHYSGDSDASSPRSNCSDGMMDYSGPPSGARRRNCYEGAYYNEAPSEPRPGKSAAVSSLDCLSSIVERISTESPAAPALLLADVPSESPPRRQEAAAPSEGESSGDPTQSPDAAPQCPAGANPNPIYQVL", "test": "Native polyacrylamide gel binding of tritiated tetracycline to protein", "conditions": "10-30-fold molar excess of tritiated tetracycline, PBS, room temperature 30 minutes, 8% native gel autoradiogram", "procedure": "as §1, §2, §3, §4"}, "[5]": {"tested_on": "Hsp90 (heat shock protein 90)", "test": "Native polyacrylamide gel binding of tritiated tetracycline to protein", "conditions": "10-30-fold molar excess of tritiated tetracycline, PBS, room temperature 30 minutes, 8% native gel autoradiogram", "procedure": "as §1, §2, §3, §4"}, "[6]": {"tested_on": "Id1 new, the normal protein (native Id1)", "test": "Native polyacrylamide gel binding of tritiated tetracycline to protein", "conditions": "10-30-fold molar excess of tritiated tetracycline, PBS, room temperature 30 minutes, 8% native gel autoradiogram", "procedure": "as §1, §2, §3, §4"}, "[7]": {"biological_target": "T2, E12", "test": "4R-TK-CAT reporter assay with E12 plasmid alone in mammalian culture cells", "format": "cell-based", "conditions": "E12 plasmid without Id1, tetracycline 100", "source_text": "(§5) Plasmids capable of expressing proteins when introduced into mammalian culture cells were used to test the activity of those proteins. In the assay depicted below, a plasmid that contains sequences to which the E12 protein binds upstream of a reporter gene (4R-TK-CAT) ix mixed with an E12 encoding plasmid and an Id plasmid to see if Id can inhibit the ability of E12 protein to bind and activate the reporter gene, in a similar to that described in Pesce, 1993 #163. If E12 binds to its sequence in the 4R-TK-CAT vector, it causes expression of the chloramphenical acetyltransferase (CAT) gene. The protein product of the CAT gene has an enzymatic activity that can be quantified. Uptake of the various plasmids was normalized to the expression of luciferase activity from a separate plasmid added in equal amounts to all cultures."}, "[8]": {"biological_target": "T4, Id1 (Homo sapiens, UniProt P41134)", "T4 sequence (P41134 1-155)": "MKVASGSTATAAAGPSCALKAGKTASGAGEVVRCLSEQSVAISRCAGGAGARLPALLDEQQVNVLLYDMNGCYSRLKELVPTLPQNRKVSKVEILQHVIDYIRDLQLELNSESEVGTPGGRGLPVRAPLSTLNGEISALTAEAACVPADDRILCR", "test": "4R-TK-CAT reporter assay with E12 and Id1 plasmids in mammalian culture cells", "format": "cell-based", "source_text": "as §5"}, "[9]": {"biological_target": "T4, Id1", "test": "Gel shift: Id1 antagonism of E47 binding to radiolabeled DNA", "format": "biochemical", "procedure": "Purified Id1 and its target protein E12 are mixed to together in vitro, and the ability of Id1 to antagonize DNA binding capacity of E12 is measured. To measure E12 DNA binding activity, the mixtures were incubated with radiolabeled DNA sequences to which E12 binds and the protein/DNA complexes resolved on a native polyacrylamide gel as described [Benezra, 1994 #463].\nIn this experiment, 50 nanograms of E47 protein (described in Example I) was present in reaction mixtures of 100, 200, and 400 nanograms of Id1, designated +, ++, and +++ respectively in FIG. 2. Tetracycline was added to the reactions as indicated (+) to about 200 Tg/ml final concentration. Radiolabeled DNA to which E47 binds was then introduced in each mixture. […] Each of the mixtures was permitted to incubate at room temperature for about 30 minutes. Then, the mixtures were electrophoresed in an 8% native polyacrylamide gel as described in Benezra, 1994.\nAfter electrophoresing the samples, the gel was dried and exposed to autoradiographic film to make an autoradiograph of the gel."}},
  "data": [
    {"smiles": "CN(C)[C@@H]1C(O)=C(C(N)=O)C(=O)[C@@]2(O)C(O)=C3C(=O)c4c(O)cccc4[C@@](C)(O)[C@H]3C[C@@H]12", "note": "[tetracycline, [4S-(4I,5aI,5aI,6J,12aI)]-4-(Dimethylamino)-1,4,4a,5,5a,6-11,12a-octahydro-3,6, 10,12,12a-peiztaiydroxy-6-methyl-1,11-dioxo-2-naphthacenecarboxamide]", "values": [
      {"measurement": "Binding of radiolabeled tetracycline to E47 (lane 6)", "setting": "[1]", "value": "did not bind"},
      {"measurement": "Binding of radiolabeled tetracycline to old Id having a perturbed conformation (lane 3)", "setting": "[2]", "value": "no radiolabeled tetracycline was detected"},
      {"measurement": "Binding of radiolabeled tetracycline to E12 (lane 2)", "setting": "[3]", "value": "did not bind"},
      {"measurement": "Binding of radiolabeled tetracycline to MyoD (lane 5)", "setting": "[4]", "value": "did not bind"},
      {"measurement": "Binding of radiolabeled tetracycline to Hsp90 (lane 1)", "setting": "[5]", "value": "did not bind"},
      {"measurement": "Binding of radiolabeled tetracycline to native Id1 (lane 4)", "setting": "[6]", "value": "bound to native Id1"},
      {"measurement": "Effect of tetracycline on E12 activation of 4R-TK-CAT", "setting": "[7]", "value": "not effected"},
      {"measurement": "Effect of tetracycline on Id1 inhibition of E12 (4R-TK-CAT reporter), Id1 high", "setting": "[8]; Id1 10:1 molar excess over E12, tetracycline 100", "value": "no longer effective"},
      {"measurement": "E12 binding activity (4R-TK-CAT reporter) in presence of tetracycline, Id1 (low)", "setting": "[8]; Id1 plasmid at 3:1 molar excess of E12, tetracycline 100", "value": "partially restored"},
      {"measurement": "E47/DNA complex band intensity with tetracycline (lane 4) versus without (lane 3)", "setting": "[9]; 50 nanograms E47, 100 nanograms Id1, tetracycline about 200 Tg/ml, same said for lanes 6 vs 5 and 8 vs 7 (200, 400 nanograms Id1)", "value": "much more intense"},
      {"measurement": "Effect on Id activity, i.e. dimerizing with a protein member of the HLH super family, in vitro", "setting": "[9]; tetracycline about 200 Tg/ml, 50 nanograms E47, 100-400 nanograms Id1", "value": "clearly inhibits Id activity"}
    ]}
  ]
}
